Read-outs that look alike come from different tables or passages of the source.
Assays:
T. brucei DHFR (tbDHFR) = T. brucei DHFR (tbDHFR) (Trypanosoma brucei brucei, UniProt Q27783); test: DHFR inhibition assay (diaphorase/resazurin coupled), T. brucei DHFR; format: biochemical; details: Table 13; T. brucei DHFR
T. gondii DHFR (tgDHFR) = T. gondii DHFR (tgDHFR) (Toxoplasma gondii, UniProt Q07422); details: for Average DHFR selectivity (h/tg): hDHFR IC50/tgDHFR IC50
[1] = target: P. falciparum DHFR (pfDHFR) (Plasmodium falciparum (isolate K1 / Thailand), UniProt P13922); test: DHFR inhibition assay (diaphorase/resazurin coupled), P. falciparum DHFR; format: biochemical; details: for pfDHFR pIC50-DHFR primary assay: Table 15, P. falciparum DHFR
hDHFR = hDHFR (Homo sapiens (Human), UniProt P00374); test: DHFR inhibition assay (diaphorase/resazurin coupled, fluorescence of resorufin), human DHFR; format: biochemical
Chain of hDHFR (P00374 whole entry): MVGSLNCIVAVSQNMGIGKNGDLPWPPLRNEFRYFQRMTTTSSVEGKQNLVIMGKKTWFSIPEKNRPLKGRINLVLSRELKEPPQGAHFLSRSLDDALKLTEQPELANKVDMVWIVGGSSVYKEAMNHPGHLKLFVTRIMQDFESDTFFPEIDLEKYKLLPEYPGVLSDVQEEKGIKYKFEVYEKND

L. major DHFR (1mDHFR) = L. major DHFR (1mDHFR) (Leishmania major, UniProt P07382); format: biochemical; details: for Average DHFR selectivity (h/lm)*-DHFR IC50: hDHFR IC50/L. major DHFR IC50
T. cruzi DHFR (tcDHFR) = T. cruzi DHFR (tcDHFR) (Trypanosoma cruzi, UniProt Q27793); test: DHFR inhibition assay (diaphorase/resazurin coupled), T. cruzi DHFR; format: biochemical

## COc1ncc(-c2cccc(N3CCN(c4cnc(N)nc4N)CC3)c2)cn1 [Compound 78, 5-(4-(3-(2-methoxypyrimidin-5-yl)phenyl)piperazin-1-yl)pyrimidine-2,4-diamine]
T. brucei DHFR (tbDHFR)
  tbDHFR pIC50-DHFR primary assay: 8.68
T. gondii DHFR (tgDHFR); Table 11, T. gondii DHFR
  tgDHFR pIC50-DHFR primary assay: 8.49
[1]
  pfDHFR pIC50-DHFR primary assay: 9.15
hDHFR; Table 11
  hDHFR pIC50-DHFR primary assay: 5.92
hDHFR; Table 13
  hDHFR pIC50-DHFR primary assay: 6.05
hDHFR; Table 15
  hDHFR pIC50-DHFR primary assay: 6.04

## Nc1ncc(N2CCN(c3cccc(-c4ccnc(F)c4)c3)CC2)c(N)n1 [Compound 90, 5-(4-(3-(2-fluoropyridin-4-yl)phenyl)piperazin-1-yl)pyrimidine-2,4-diamine]
L. major DHFR (1mDHFR)
  Average DHFR selectivity (h/lm)*-DHFR IC50: 27

## Nc1ncc(N2CCN(c3cnc4ccccc4c3)CC2)c(N)n1 [Compound 19, 5-(4-(quinolin-3-yl)piperazin-1-yl)pyrimidine-2,4-diamine]
L. major DHFR (1mDHFR)
  Average DHFR selectivity (h/lm)*-DHFR IC50: 35

## Nc1ncc(N2CCN(c3cccc(-c4ccncn4)c3)CC2)c(N)n1 [Compound 102, 5-(4-(3-(pyrimidin-4-yl)phenyl)piperazin-1-yl)pyrimidine-2,4-diamine]
T. cruzi DHFR (tcDHFR); hDHFR IC50/tcDHFR IC50
  Average DHFR selectivity (h/tc): 103

## Nc1ncc(N2CCN(c3cccc(-c4cccnn4)c3)CC2)c(N)n1 [Compound 107]
L. major DHFR (1mDHFR)
  Average DHFR selectivity (h/lm)*-DHFR IC50: 30

## Nc1ncc(N2CCN(c3ccc(-c4ccccc4)cc3)CC2)c(N)n1 [Compound 12, 5-(4-([1,1′-biphenyl]-4-yl)piperazin-1-yl)pyrimidine-2,4-diamine]
L. major DHFR (1mDHFR)
  Average DHFR selectivity (h/lm)*-DHFR IC50: 29

## Nc1ncc(N2CCN(c3ccccc3)CC2)c(N)n1 [Compound 4, 5-(4-phenylpiperazin-1-yl)pyrimidine-2,4-diamine]
T. brucei DHFR (tbDHFR)
  tbDHFR pIC50-DHFR primary assay: 7.50
T. gondii DHFR (tgDHFR)
  tgDHFR pIC50-DHFR primary assay: 6.68
L. major DHFR (1mDHFR); Table 14, L. major DHFR
  mDHFR pIC50-DHFR primary assay: 6.30
T. cruzi DHFR (tcDHFR); Table 12, T. cruzi DHFR
  tcDHFR pIC50-DHFR primary assay: 7.04
[1]
  pfDHFR pIC50-DHFR primary assay: 8.72
hDHFR; Table 11
  hDHFR pIC50-DHFR primary assay: 4.90
hDHFR; Table 12
  hDHFR pIC50-DHFR primary assay: 4.90
hDHFR; Table 13
  hDHFR pIC50-DHFR primary assay: 4.90
hDHFR; Table 14
  hDHFR pIC50-DHFR primary assay: 4.90
hDHFR; Table 15
  hDHFR pIC50-DHFR primary assay: 4.90

## CCCc1nc(N)nc(N)c1N1CCN(c2ccccc2)CC1 [Compound 49, 5-(4-phenylpiperazin-1-yl)-6-propylpyrimidine-2,4-diamine]
T. gondii DHFR (tgDHFR)
  Average DHFR selectivity (h/tg): 501.19
[1]
  pfDHFR pIC50-DHFR primary assay: 7.85
[1]; hDHFR IC50/pfDHFR IC50
  Average DHFR selectivity (h/pf)*-DHFR IC50: 806

## Nc1ncc(N2CCN(c3cccc(-c4cnc(N5CCC5)nc4)c3)CC2)c(N)n1 [Compound 98, 5-(4-(3-(2-(azetidin-1-yl)pyrimidin-5-yl)phenyl)piperazin-1-yl)pyrimidine-2,4-diamine]
T. gondii DHFR (tgDHFR)
  Average DHFR selectivity (h/tg): 130.84
L. major DHFR (1mDHFR)
  Average DHFR selectivity (h/lm)*-DHFR IC50: 48

Source: patent US11530198B2, “Compositions and methods for treating infections” (priority 2016, dated 2022)
